Experimental data reported in patent US20170209346A1, “SHAPED CELLULOSE BODIES WITH PHYSIOLOGICALLY ACTIVE MINERAL SUBSTANCES DISTRIBUTED THEREIN” (smartpolymer GmbH, priority 2014, published 2017).
Where two headings read alike, the source gives them in different places.

Assays:
[1] = literature data, cited from earlier work
[2] = Solubility of mineral compounds in water; settings: at 20° C.; chemically pure material used in Example 1
Excerpt: The mineral compounds contain at least one mineral from the group consisting of sodium, potassium, calcium and magnesium and zinc. […] Water solubility is a prerequisite for the activity of the mineral compounds used, since corresponding anions and cations can thus be released.
This reported solubility is based on literature data. This list in no way restricts the actual multiplicity of possible mineral compounds having the required properties.

Q: For [O]=[Zn] [Zinc oxide], which solubility in water ([1]; 29° C.) is on record?
A: 1.6 µg/mL

Q: With [O]=[Mg] [Magnesium oxide] as the compound, how does the solubility in water ([1]; temperature not given) read?
A: 12 µg/mL

Q: For [O]=[Mg] [type 1 magnesium oxide, magnesium oxide], which solubility in water [2] is on record?
A: 12.5 µg/mL

Q: With Hydroxylapatite as the compound, how does the solubility in water ([1]; 20° C.) read?
A: 6.57 µg/mL
